{
  "source": "patent US20150307938A1",
  "about": "“METHOD TO IDENTIFY A NOVEL CLASS OF IMMUNOLOGIC ADJUVANTS” (Lancell, L.L.C., priority 2011, published 2015)",
  "system": "skin",
  "assay": "Affymetrix microarray of skin, DBP-4 hr and analogs vs. untreated; gene selection by log-2 fold change, Wilcoxon, Kendall tau (Tables 8, 9)",
  "assay_type": "in vivo, mouse",
  "data": [
    {"smiles": "CC(C)=O", "note": "[Acetone]", "values": [
      {"measurement": "Log2 Expression Level", "setting": "gene #1 of Table 8", "value": 5.63},
      {"measurement": "Log2 Expression Level", "setting": "gene #2 of Table 8", "value": 7.13},
      {"measurement": "Log2 Expression Level", "setting": "gene #3 of Table 8", "value": 8.73},
      {"measurement": "Log2 Expression Level", "setting": "gene #4 of Table 8", "value": 8.73},
      {"measurement": "Log2 Expression Level", "setting": "gene #5 of Table 8", "value": 6.36},
      {"measurement": "Log2 Expression Level", "setting": "gene #6 of Table 8", "value": 5.62},
      {"measurement": "Log2 Expression Level", "setting": "gene #7 of Table 8", "value": 5.07},
      {"measurement": "Log2 Expression Level", "setting": "gene #8 of Table 8", "value": 5.62},
      {"measurement": "Log2 Expression Level", "setting": "gene #9 of Table 8", "value": 5.62},
      {"measurement": "Log2 Expression Level", "setting": "gene #10 of Table 8", "value": 5.62},
      {"measurement": "Log2 Expression Level", "setting": "gene #11 of Table 8", "value": 5.07},
      {"measurement": "Log2 Expression Level", "setting": "gene #12 of Table 8", "value": 5.07},
      {"measurement": "Log2 Expression Level", "setting": "gene #13 of Table 8", "value": 5.07},
      {"measurement": "Log2 Expression Level", "setting": "gene #14 of Table 8", "value": 4.90},
      {"measurement": "Log2 Expression Level", "setting": "gene #15 of Table 8", "value": 4.90},
      {"measurement": "Log2 Expression Level", "setting": "gene #16 of Table 8", "value": 6.15},
      {"measurement": "Log2 Expression Level", "setting": "gene #17 of Table 8", "value": 8.79},
      {"measurement": "Log2 Expression Level", "setting": "gene #18 of Table 8", "value": 8.79},
      {"measurement": "Log2 Expression Level", "setting": "gene #19 of Table 8", "value": 8.22},
      {"measurement": "Log2 Expression Level", "setting": "gene #20 of Table 8", "value": 7.12},
      {"measurement": "Log2 Expression Level", "setting": "gene #21 of Table 8", "value": 7.81},
      {"measurement": "Log2 Expression Level", "setting": "gene #22 of Table 8", "value": 7.76},
      {"measurement": "Log2 Expression Level", "setting": "gene #23 of Table 8", "value": 5.76},
      {"measurement": "Log2 Expression Level", "setting": "gene #24 of Table 8", "value": 6.97},
      {"measurement": "Log2 Expression Level", "setting": "gene #25 of Table 8", "value": 6.97},
      {"measurement": "Log2 Expression Level", "setting": "gene #26 of Table 8", "value": 6.97},
      {"measurement": "Log2 Expression Level", "setting": "gene #27 of Table 8", "value": 6.97},
      {"measurement": "Log2 Expression Level", "setting": "gene #28 of Table 8", "value": 6.97},
      {"measurement": "Log2 Expression Level", "setting": "gene #29 of Table 8", "value": 4.96},
      {"measurement": "Log2 Expression Level", "setting": "gene #30 of Table 8", "value": 8.52},
      {"measurement": "Log2 Expression Level", "setting": "gene #31 of Table 8", "value": 8.52},
      {"measurement": "Log2 Expression Level", "setting": "gene #32 of Table 8", "value": 8.52},
      {"measurement": "Log2 Expression Level", "setting": "gene #33 of Table 8", "value": 5.65},
      {"measurement": "Log2 Expression Level", "setting": "gene #34 of Table 8", "value": 6.46},
      {"measurement": "Log2 Expression Level", "setting": "gene #35 of Table 8", "value": 6.46},
      {"measurement": "Log2 Expression Level", "setting": "gene #36 of Table 8", "value": 8.73},
      {"measurement": "Log2 Expression Level", "setting": "gene #37 of Table 8", "value": 8.73},
      {"measurement": "Log2 Expression Level", "setting": "gene #38 of Table 8", "value": 8.73},
      {"measurement": "Log2 Expression Level", "setting": "gene #39 of Table 8", "value": 7.16},
      {"measurement": "Log2 Expression Level", "setting": "gene #40 of Table 8", "value": 7.23},
      {"measurement": "Log2 Expression Level", "setting": "gene #41 of Table 8", "value": 7.42},
      {"measurement": "Log2 Expression Level", "setting": "gene #42 of Table 8", "value": 7.03},
      {"measurement": "Log2 Expression Level", "setting": "gene #43 of Table 8", "value": 7.03},
      {"measurement": "Log2 Expression Level", "setting": "gene #44 of Table 8", "value": 7.42},
      {"measurement": "Log2 Expression Level", "setting": "gene #45 of Table 8", "value": 7.03},
      {"measurement": "Log2 Expression Level", "setting": "gene #46 of Table 8", "value": 7.42},
      {"measurement": "Log2 Expression Level", "setting": "gene #47 of Table 8", "value": 7.47},
      {"measurement": "Log2 Expression Level", "setting": "gene #48 of Table 8", "value": 7.47},
      {"measurement": "Log2 Expression Level", "setting": "gene #49 of Table 8", "value": 7.47},
      {"measurement": "Log2 Expression Level", "setting": "gene #50 of Table 8", "value": 7.97},
      {"measurement": "Log2 Expression Level", "setting": "gene #51 of Table 8", "value": 7.28},
      {"measurement": "Log2 Expression Level", "setting": "gene #52 of Table 8", "value": 9.55},
      {"measurement": "Log2 Expression Level", "setting": "gene #53 of Table 8", "value": 7.74},
      {"measurement": "Log2 Expression Level", "setting": "gene #54 of Table 8", "value": 9.23},
      {"measurement": "Log2 Expression Level", "setting": "gene #55 of Table 8", "value": 6.67},
      {"measurement": "Log2 Expression Level", "setting": "gene #56 of Table 8", "value": 8.58},
      {"measurement": "Log2 Expression Level", "setting": "gene #57 of Table 8", "value": 8.52},
      {"measurement": "Log2 Expression Level", "setting": "gene #58 of Table 8", "value": 8.50},
      {"measurement": "Log2 Expression Level", "setting": "gene #59 of Table 8", "value": 8.28},
      {"measurement": "Log2 Expression Level", "setting": "gene #60 of Table 8", "value": 6.59},
      {"measurement": "Log2 Expression Level", "setting": "gene #61 of Table 8", "value": 11.19},
      {"measurement": "Log2 Expression Level", "setting": "gene #62 of Table 8", "value": 7.64},
      {"measurement": "Log2 Expression Level", "setting": "gene #63 of Table 8", "value": 10.28},
      {"measurement": "Log2 Expression Level", "setting": "gene #64 of Table 8", "value": 10.06},
      {"measurement": "Log2 Expression Level", "setting": "gene #65 of Table 8", "value": 6.46},
      {"measurement": "Log2 Expression Level", "setting": "gene #66 of Table 8", "value": 7.87},
      {"measurement": "Log2 Expression Level", "setting": "gene #67 of Table 8", "value": 4.12},
      {"measurement": "Log2 Expression Level", "setting": "gene #68 of Table 8", "value": 6.73},
      {"measurement": "Log2 Expression Level", "setting": "gene #69 of Table 8", "value": 4.99},
      {"measurement": "Log2 Expression Level", "setting": "gene #70 of Table 8", "value": 4.18},
      {"measurement": "Log2 Expression Level", "setting": "gene #71 of Table 8", "value": 6.68},
      {"measurement": "Log2 Expression Level", "setting": "gene #72 of Table 8", "value": 7.93},
      {"measurement": "Log2 Expression Level", "setting": "gene #73 of Table 8", "value": 5.55},
      {"measurement": "Log2 Expression Level", "setting": "gene #74 of Table 8", "value": 7.00},
      {"measurement": "Log2 Expression Level", "setting": "gene #75 of Table 8", "value": 8.22},
      {"measurement": "Log2 Expression Level", "setting": "gene #76 of Table 8", "value": 4.30},
      {"measurement": "Log2 Expression Level", "setting": "gene #77 of Table 8", "value": 8.48},
      {"measurement": "Log2 Expression Level", "setting": "gene #78 of Table 8", "value": 9.31},
      {"measurement": "Log2 Expression Level", "setting": "gene #79 of Table 8", "value": 6.49},
      {"measurement": "Log2 Expression Level", "setting": "gene #80 of Table 8", "value": 12.42},
      {"measurement": "Log2 Expression Level", "setting": "gene #81 of Table 8", "value": 5.50},
      {"measurement": "Log2 Expression Level", "setting": "gene #82 of Table 8", "value": 5.03},
      {"measurement": "Log2 Expression Level", "setting": "gene #83 of Table 8", "value": 6.32},
      {"measurement": "Log2 Expression Level", "setting": "gene #84 of Table 8", "value": 6.04},
      {"measurement": "Log2 Expression Level", "setting": "gene #85 of Table 8", "value": 4.71},
      {"measurement": "Log2 Expression Level", "setting": "gene #86 of Table 8", "value": 6.08},
      {"measurement": "Log2 Expression Level", "setting": "gene #87 of Table 8", "value": 8.85},
      {"measurement": "Log2 Expression Level", "setting": "gene #88 of Table 8", "value": 4.54},
      {"measurement": "Log2 Expression Level", "setting": "gene #89 of Table 8", "value": 5.23},
      {"measurement": "Log2 Expression Level", "setting": "gene #90 of Table 8", "value": 9.45},
      {"measurement": "Log2 Expression Level", "setting": "gene #91 of Table 8", "value": 6.14},
      {"measurement": "Log2 Expression Level", "setting": "gene #92 of Table 8", "value": 6.80},
      {"measurement": "Log2 Expression Level", "setting": "gene #93 of Table 8", "value": 8.25},
      {"measurement": "Log2 Expression Level", "setting": "gene #94 of Table 8", "value": 7.10},
      {"measurement": "Log2 Expression Level", "setting": "gene #95 of Table 8", "value": 4.96},
      {"measurement": "Log2 Expression Level", "setting": "gene #96 of Table 8", "value": 6.62},
      {"measurement": "Log2 Expression Level", "setting": "gene #97 of Table 8", "value": 5.16},
      {"measurement": "Log2 Expression Level", "setting": "gene #98 of Table 8", "value": 4.29},
      {"measurement": "Log2 Expression Level", "setting": "gene #99 of Table 8", "value": 8.55},
      {"measurement": "Log2 Expression Level", "setting": "gene #100 of Table 8", "value": 6.49}
    ]}
  ]
}
